Data taken from BindingDB's records for PubMed 35247754 (China Pharmaceutical University, 2022).

Assays:
[1] = target: T1, Sentrin-specific protease 6 (Homo sapiens, UniProt Q9GZR1); assay: Inhibition of human SENP6 using AMC-tagged SUMO1 as substrate incubated for 10 mins by fluorescence based analysis
T1 sequence (Q9GZR1 whole entry): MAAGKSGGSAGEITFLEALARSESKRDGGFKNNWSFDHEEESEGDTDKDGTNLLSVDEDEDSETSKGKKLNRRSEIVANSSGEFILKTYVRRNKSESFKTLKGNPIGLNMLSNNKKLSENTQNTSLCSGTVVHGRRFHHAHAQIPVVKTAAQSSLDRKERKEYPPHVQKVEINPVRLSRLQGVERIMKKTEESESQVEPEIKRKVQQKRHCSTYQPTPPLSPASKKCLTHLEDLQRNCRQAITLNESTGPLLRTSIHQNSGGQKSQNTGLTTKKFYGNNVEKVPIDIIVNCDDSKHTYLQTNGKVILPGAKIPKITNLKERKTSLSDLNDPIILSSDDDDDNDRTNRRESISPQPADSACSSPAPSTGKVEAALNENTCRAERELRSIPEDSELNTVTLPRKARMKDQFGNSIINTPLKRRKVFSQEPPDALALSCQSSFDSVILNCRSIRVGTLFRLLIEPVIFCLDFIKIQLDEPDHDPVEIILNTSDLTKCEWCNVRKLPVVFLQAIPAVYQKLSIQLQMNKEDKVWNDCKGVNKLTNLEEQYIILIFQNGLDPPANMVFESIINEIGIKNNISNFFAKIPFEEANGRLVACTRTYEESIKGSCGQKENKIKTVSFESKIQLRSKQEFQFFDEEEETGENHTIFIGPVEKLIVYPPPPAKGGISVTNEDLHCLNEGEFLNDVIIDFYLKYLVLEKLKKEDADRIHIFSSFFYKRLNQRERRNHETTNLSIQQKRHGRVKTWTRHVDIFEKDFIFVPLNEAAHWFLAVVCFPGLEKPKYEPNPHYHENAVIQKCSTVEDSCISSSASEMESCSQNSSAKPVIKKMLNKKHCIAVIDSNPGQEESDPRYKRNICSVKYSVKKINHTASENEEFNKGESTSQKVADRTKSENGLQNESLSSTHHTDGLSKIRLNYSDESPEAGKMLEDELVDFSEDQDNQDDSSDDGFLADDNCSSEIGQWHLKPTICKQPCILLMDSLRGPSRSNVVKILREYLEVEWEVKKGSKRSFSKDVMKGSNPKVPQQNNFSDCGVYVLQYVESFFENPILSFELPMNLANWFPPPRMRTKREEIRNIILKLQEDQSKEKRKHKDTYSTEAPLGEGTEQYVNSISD

[2] = target: T2, Sentrin-specific protease 1 (Homo sapiens, UniProt Q9P0U3); assay: Inhibition of human SENP1 using AMC-tagged SUMO1 as substrate incubated for 10 mins by fluorescence based analysis
T2 sequence (Q9P0U3 whole entry): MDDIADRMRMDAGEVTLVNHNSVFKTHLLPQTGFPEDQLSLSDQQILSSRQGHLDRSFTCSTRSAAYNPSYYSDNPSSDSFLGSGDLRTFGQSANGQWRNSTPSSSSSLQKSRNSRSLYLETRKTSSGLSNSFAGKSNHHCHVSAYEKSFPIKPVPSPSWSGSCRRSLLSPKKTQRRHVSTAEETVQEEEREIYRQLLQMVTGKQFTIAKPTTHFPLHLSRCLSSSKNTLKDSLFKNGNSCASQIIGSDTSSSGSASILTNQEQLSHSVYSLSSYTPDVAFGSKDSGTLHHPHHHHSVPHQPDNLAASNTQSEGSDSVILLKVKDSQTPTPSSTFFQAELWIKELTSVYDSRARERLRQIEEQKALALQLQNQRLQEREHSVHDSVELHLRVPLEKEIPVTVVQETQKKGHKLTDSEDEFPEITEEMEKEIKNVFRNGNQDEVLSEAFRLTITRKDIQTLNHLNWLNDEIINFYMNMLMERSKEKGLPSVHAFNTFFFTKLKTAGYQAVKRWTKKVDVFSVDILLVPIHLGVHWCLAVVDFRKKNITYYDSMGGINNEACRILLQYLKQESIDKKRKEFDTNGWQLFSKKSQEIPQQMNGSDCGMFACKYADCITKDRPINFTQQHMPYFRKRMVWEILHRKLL

[3] = target: T3, Sentrin-specific protease 2 (Homo sapiens, UniProt Q9HC62); assay: Inhibition of human SENP2 using AMC-tagged SUMO1 as substrate incubated for 10 mins by fluorescence based analysis
T3 sequence (Q9HC62 whole entry): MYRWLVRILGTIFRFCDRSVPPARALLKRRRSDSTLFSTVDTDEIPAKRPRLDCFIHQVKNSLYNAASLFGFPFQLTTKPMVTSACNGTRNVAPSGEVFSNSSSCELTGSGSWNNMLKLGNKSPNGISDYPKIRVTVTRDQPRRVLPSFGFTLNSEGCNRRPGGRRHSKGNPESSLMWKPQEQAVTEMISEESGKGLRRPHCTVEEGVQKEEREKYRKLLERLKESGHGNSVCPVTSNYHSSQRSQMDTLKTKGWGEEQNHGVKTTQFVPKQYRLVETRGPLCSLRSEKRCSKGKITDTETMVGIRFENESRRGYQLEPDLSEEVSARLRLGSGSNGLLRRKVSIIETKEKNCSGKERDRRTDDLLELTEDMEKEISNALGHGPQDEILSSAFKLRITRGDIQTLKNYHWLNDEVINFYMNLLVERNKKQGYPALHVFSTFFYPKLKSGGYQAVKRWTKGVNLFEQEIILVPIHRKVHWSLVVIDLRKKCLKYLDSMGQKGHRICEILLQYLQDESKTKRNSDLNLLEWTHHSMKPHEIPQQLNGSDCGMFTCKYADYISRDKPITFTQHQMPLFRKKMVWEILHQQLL

COC1=C(N)C(=O)c2nc(-c3nc(C(=O)O)c(C)c(-c4ccc(OC)c(OC)c4O)c3N)ccc2C1=O [CHEBI:9287]
IC50 [1]: 5.2 µM | IC50 [2]: 0.52 µM | IC50 [3]: 6.9 µM
